From US10160747B2, “Compounds and methods for kinase modulation, and indications therefor” (Plexxikon Inc., priority 2016, dated 2018)

Tests used:
[1] = system: MOLM-14 D835Y (endogenous FLT3 ITD and transfected FLT3 D835Y); assay: MOLM-14 D835Y cell proliferation assay (CellTiter-Glo); format: cell-based; conditions: Homo sapiens, MOLM-14, 72 h; 3 d growth, GMean
From the text: (§1) The FLT3 inhibitors may be assessed using the MOLM-14, Acute Myeloid Leukemia cell line that endogenously expresses FLT3 ITD or derivatives of the human FLT3 AML cell line which acquired the D835Y (activation loop) of F691L (gatekeeper) mutation after selection in escalating doses of the FLT3 Inhibitor AC220. FLT3 inhibitors may also be assessed using cells that are engineered to express mutant FLT3. For engineered cells, murine Ba/F3 cells were transfected with full-length FLT3 ITD/D835Y mutations. The parental BA/F3 cells are dependent upon Interleukin-3 (IL-3) for survival, and introduction of the FLT3 constructs rendered these cells dependent upon FLT3 kinase activity when cultured in the absences of IL-3. Engineered BA/F3 cell growth assays can be performed in either the […] of IL-3, to assess the compound inhibition of FLT3 or to detect the presence of off-target activity, respectively. Inhibitors of FLT3 kinase activity reduce or eliminate the FLT3 oncogenic signaling, resulting in reduced cell proliferation. This inhibition is measured as a function of compound concentration to assess IC50 values.
(§2) Cell lines used in proliferation assays are as follows in Table 2:
(§3) Cells were seeded at 1×10^4 cells per well of a 96 well cell culture plate in 50 μl of cell culture medium. Compounds were dissolved in DMSO, typically at a concentration of 0.5 mM and were serially diluted 1:3 for a total of eight points and added to the cells to final concentrations of […], 0.0041, 0.0014 and 0.00046 μM in 100 μl cell culture medium (final concentration 0.2% DMSO). […] The cells were incubated at 37° C., 5% CO2 for three days. CellTiter-Glo Buffer (Promega Cell Viability Assay catalog #G7573) and substrate were equilibrated to room temperature, and enzyme/substrate Recombinant Firefly Luciferase/Beetle Luciferin was reconstituted. The cell plates were equilibrated to room temperature for 30 minutes, then lysed by addition of an equivalent volume of the Celltiter-Glo Reagent. The plate was mixed for 10 minutes on a plate shaker to lyse the cells. The plates were read on a Tecan M1000 using Luminescence protocol modified to read 0.1 s per well. The luminescence reading assesses the ATP content, which correlates directly with cell number such that the reading as a function of compound concentration was used to determine the IC50 value.

[2] = system: MOLM-14 F691L (endogenous FLT3 ITD and transfected FLT3 F691L); assay: MOLM-14 F691L cell proliferation assay (CellTiter-Glo); format: cell-based; conditions: Homo sapiens, MOLM-14, 72 h; 3 d growth, GMean
From the text: as §1, §2, §3

BA/F3-FLT3-ITD + D835Y = target: T1, BA/F3-FLT3-ITD + D835Y (Homo sapiens, UniProt P36888, D835Y, cells depend on it, form not given); assay: Engineered BA/F3 cell growth assay, FLT3 ITD/D835Y; format: cell-based, murine; conditions: 3 d growth
T1 sequence (P36888 with tags, fused parts or gaps INS600HVDFREYEYD/D835Y): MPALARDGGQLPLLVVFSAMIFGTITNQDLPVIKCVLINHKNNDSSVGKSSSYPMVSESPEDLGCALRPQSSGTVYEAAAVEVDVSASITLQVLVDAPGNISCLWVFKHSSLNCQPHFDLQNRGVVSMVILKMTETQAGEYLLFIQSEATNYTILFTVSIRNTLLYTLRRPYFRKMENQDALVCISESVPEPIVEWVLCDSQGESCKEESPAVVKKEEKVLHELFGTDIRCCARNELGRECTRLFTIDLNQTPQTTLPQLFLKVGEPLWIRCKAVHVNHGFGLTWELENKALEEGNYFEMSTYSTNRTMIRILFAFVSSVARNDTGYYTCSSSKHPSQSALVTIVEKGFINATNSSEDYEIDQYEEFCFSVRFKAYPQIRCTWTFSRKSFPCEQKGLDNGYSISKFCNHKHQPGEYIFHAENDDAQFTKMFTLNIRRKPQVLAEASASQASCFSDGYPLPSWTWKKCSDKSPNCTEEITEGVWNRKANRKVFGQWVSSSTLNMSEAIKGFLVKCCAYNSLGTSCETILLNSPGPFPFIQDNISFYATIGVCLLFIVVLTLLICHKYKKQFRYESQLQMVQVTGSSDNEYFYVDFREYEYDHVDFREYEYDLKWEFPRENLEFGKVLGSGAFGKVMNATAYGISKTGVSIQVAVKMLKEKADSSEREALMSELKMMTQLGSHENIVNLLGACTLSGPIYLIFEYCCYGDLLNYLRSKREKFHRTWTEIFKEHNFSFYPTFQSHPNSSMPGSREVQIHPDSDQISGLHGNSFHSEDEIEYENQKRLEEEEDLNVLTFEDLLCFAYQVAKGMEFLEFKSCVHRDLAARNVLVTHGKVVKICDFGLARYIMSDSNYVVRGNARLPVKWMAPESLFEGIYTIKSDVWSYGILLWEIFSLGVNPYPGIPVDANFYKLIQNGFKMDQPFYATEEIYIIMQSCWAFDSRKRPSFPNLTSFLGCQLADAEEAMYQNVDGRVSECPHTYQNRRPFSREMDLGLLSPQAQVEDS
From the text: as §1, §2, §3
The BaF3 assays as developed used to generate the data in Tables 7 and 8 are identical and differ only in minor details in regards to vector design, not biological function. Both introduce the FLT3 gene with MV4-11 based ITD duplications and resistance mutations from an exogenous promoter (MSCV and CMV respectively) in the exact same cell line.
As a result of the expressed FLT3 protein, the IL3 factor dependent BaF3 cell clones become IL3-factor independent.
The compounds in Tables 7 and 8 were tested in an identical fashion by incubating such clones in with increasing concentrations. Inhibition of the FLT3 activity by an inhibitor results in factor dependency, which in the absence of IL3 results in cell death in the three day growth assays.

| IC50 [1] [µM] | IC50 [2] [µM] | GI50 (BA/F3-FLT3-ITD + D835Y) [µM] | Compound |
| --- | --- | --- | --- |
| 0.0001 to 10 | 0.0001 to 10 | 0.0001 to 10 | Cn1cc(Nc2ncc(-c3ccc(CC(=O)NCc4c(F)cccc4Cl)cc3)cn2)cn1 [Compound P-0127, N-[(2-chloro-6-fluoro-phenyl)methyl]-2-[4-[2-[(1-methylpyrazol-4-yl)amino]pyrimidin-5-yl]phenyl]acetamide] |
| 0.0001 to 10 | 0.0001 to 10 | 0.0001 to 10 | Cc1noc2ncc(NC(=O)Cc3ccc(-c4cnc(Nc5cnn(C)c5)nc4)cc3)cc12 [Compound P-0130, N-(3-methylisoxazolo[5,4-b]pyridin-5-yl)-2-[4-[2-[(1-methylpyrazol-4-yl)amino]pyrimidin-5-yl]phenyl]acetamide] |
| 0.0001 to 10 | 0.0001 to 10 | 0.0001 to 10 | Cn1cc(Nc2ncc(-c3ccc(CC(=O)Nc4cc(C(C)(F)F)ccn4)cc3)cn2)cn1 [Compound P-0147, N-[4-(1,1-difluoroethyl)-2-pyridyl]-2-[4-[2-[(1-methylpyrazol-4-yl)amino]pyrimidin-5-yl]phenyl]acetamide] |
| 0.0001 to 10 | 0.0001 to 10 | 0.0001 to 10 | COc1cc(-c2cc3cc(-c4ccc(CC(=O)Nc5ccnc(C(F)(F)F)c5)nc4)cnc3[nH]2)ccn1 [Compound P-0187, 2-[5-[2-(2-methoxy-4-pyridyl)-1H-pyrrolo[2,3-b]pyridin-5-yl]-2-pyridyl]-N-[2-(trifluoromethyl)-4-pyridyl]acetamide] |
| 0.0001 to 10 | 0.0001 to 10 | 0.0001 to 10 | O=C(Cc1cc(F)c(-c2cnc3[nH]c(-c4ccnc(N5CCOCC5)c4)cc3c2)cc1F)Nc1cc(C(F)(F)F)ccn1 [Compound P-0190, 2-[2,5-difluoro-4-[2-(2-morpholino-4-pyridyl)-1H-pyrrolo[2,3-b]pyridin-5-yl]phenyl]-N-[4-(trifluoromethyl)-2-pyridyl]acetamide] |

Continued, molecule first:

| Compound | IC50 [1] [µM] | IC50 [2] [µM] | GI50 (BA/F3-FLT3-ITD + D835Y) [µM] |
| --- | --- | --- | --- |
| Cn1cc(Nc2ncc(-c3ccc(CC(=O)NCc4ccc(F)cc4Cl)cc3)cn2)cn1 [Compound P-0125, N-[(2-chloro-4-fluoro-phenyl)methyl]-2-[4-[2-[(1-methylpyrazol-4-yl)amino]pyrimidin-5-yl]phenyl]acetamide] | 0.0001 to 10 | 0.0001 to 10 | 0.0001 to 10 |
| Cn1cc(Nc2ncc(-c3ccc(CC(=O)NCc4cccc(C(F)(F)F)c4)cc3)cn2)cn1 [Compound P-0128, 2-[4-[2-[(1-methylpyrazol-4-yl)amino]pyrimidin-5-yl]phenyl]-N-[[3-(trifluoromethyl)phenyl]methyl]acetamide] | 0.0001 to 10 | 0.0001 to 10 | 0.0001 to 10 |
| Cn1cc(Nc2ncc(-c3ccc(CC(=O)NCc4ccc(C(F)(F)F)cc4)cc3)cn2)cn1 [Compound P-0129, 2-[4-[2-[(1-methylpyrazol-4-yl)amino]pyrimidin-5-yl]phenyl]-N-[[4-(trifluoromethyl)phenyl]methyl]acetamide] | 0.0001 to 10 | 0.0001 to 10 | 0.0001 to 10 |
| Cn1cnc(Nc2ncc(-c3ccc(CC(=O)Nc4cnc(Cl)c(C(F)(F)F)c4)cc3)cn2)c1 [Compound P-0148, N-[6-chloro-5-(trifluoromethyl)-3-pyridyl]-2-[4-[2-[(1-methylimidazol-4-yl)amino]pyrimidin-5-yl]phenyl]acetamide] | 0.0001 to 10 | 0.0001 to 10 | 0.0001 to 10 |
| COc1cc(-c2cc3cc(-c4cc(F)c(CC(=O)Nc5cc(C(F)(F)F)ccn5)cc4F)cnc3[nH]2)ccn1 [Compound P-0189, 2-[2,5-difluoro-4-[2-(2-methoxy-4-pyridyl)-1H-pyrrolo[2,3-b]pyridin-5-yl]phenyl]-N-[4-(trifluoromethyl)-2-pyridyl]acetamide] | 0.0001 to 10 | 0.0001 to 10 | 0.0001 to 10 |
| COc1ncc(NC(=O)Cc2ccc(-c3cnc4[nH]c(-c5ccc(N6CCOCC6)nc5)cc4c3)c(F)c2)cc1C(F)(F)F [Compound P-0193, 2-[3-fluoro-4-[2-(6-morpholino-3-pyridyl)-1H-pyrrolo[2,3-b]pyridin-5-yl]phenyl]-N-[6-methoxy-5-(trifluoromethyl)-3-pyridyl]acetamide] | 0.0001 to 10 | 0.0001 to 10 | 0.0001 to 10 |
